Experimental data: ChEMBL document CHEMBL1201862, “PubChem BioAssay data set” (2004)
The source made the active and inactive calls.

Key:
[1] = molecular target: Phospholipase A2 (Homo sapiens, UniProt P04054); experiment: phospholipase A2 activity inhibition – biochemical, set 2, counter-screen for ATG4B inhibitor project, dose response (AID 588586); type: functional
[2] = molecular target: T1, Cysteine protease ATG4B (Homo sapiens, UniProt Q9Y4P1); experiment: autophagin-1 cysteine protease inhibition – biochemical, fluorescence, set 2, dose response (AID 588584); type: functional
T1 sequence (Q9Y4P1 whole entry): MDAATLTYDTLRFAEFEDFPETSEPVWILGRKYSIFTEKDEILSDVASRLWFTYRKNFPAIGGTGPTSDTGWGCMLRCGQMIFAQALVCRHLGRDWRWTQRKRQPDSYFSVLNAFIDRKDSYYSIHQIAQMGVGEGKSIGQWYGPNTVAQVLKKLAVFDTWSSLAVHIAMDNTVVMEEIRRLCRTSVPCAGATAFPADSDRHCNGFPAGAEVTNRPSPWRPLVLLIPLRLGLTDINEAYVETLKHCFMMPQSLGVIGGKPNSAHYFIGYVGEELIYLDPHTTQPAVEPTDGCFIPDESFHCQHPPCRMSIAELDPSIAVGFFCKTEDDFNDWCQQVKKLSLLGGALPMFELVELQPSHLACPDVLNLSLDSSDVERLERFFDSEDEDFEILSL

[3] = system: Streptococcus sp. 'group A'; experiment: Streptococcus pyogenes SK(-)GAS viability under kanamycin – luminescence, BacTiterGlo, confirmation, counter-screen for streptokinase expression inhibitor project, dose response (AID 1900); type: functional, organism-based
[4] = molecular target: T2, Streptokinase A (Streptococcus pyogenes serotype M1, UniProt P10520); experiment: viability-normalized secreted streptokinase activity reduction – plasminogen activation absorbance, OD405, dose response (AID 1914); type: functional, Streptococcus pyogenes M1 GAS;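 note: secreted streptokinase activity via plasminogen activation per viability signal from cell pellet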
T2 sequence (P10520 whole entry): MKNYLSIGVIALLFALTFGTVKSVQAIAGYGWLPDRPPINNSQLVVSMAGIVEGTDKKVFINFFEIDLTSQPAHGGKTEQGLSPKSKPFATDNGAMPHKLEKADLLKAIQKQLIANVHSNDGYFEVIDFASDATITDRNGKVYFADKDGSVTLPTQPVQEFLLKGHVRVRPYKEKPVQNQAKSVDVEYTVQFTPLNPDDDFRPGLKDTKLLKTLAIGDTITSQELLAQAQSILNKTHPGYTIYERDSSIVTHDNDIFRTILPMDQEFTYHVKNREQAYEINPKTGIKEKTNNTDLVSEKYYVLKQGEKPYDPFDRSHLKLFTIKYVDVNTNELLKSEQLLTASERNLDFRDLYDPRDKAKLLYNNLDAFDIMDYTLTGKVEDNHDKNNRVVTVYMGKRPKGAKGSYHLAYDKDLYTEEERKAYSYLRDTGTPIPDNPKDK

[5] = system: Streptococcus; experiment: GAS UMAA2166 growth inhibition – luminescence, BacTiterGlo, counter-screen for streptokinase expression inhibitor project, dose response (AID 1915); type: functional, organism-based;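 note: potency for reduction of bacterial viability or growth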
[6] = molecular target: T3, Caspase-3 (Homo sapiens, UniProt P42574); type: functional;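 note: Dose-response selectivity test against caspase-3 for candidate inhibitors of sentrin-specific proteases (SENPs)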
T3 sequence (P42574 whole entry): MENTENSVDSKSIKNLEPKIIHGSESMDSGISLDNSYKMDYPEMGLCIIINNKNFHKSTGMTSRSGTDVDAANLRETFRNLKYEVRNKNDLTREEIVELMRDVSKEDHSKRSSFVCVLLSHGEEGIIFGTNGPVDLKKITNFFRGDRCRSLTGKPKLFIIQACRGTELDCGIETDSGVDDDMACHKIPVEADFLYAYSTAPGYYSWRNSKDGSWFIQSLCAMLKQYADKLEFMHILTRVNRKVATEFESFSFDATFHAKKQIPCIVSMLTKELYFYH

[7] = molecular target: T4, Sentrin-specific protease 7 (Homo sapiens, UniProt Q9BQF6); type: functional;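 note: Luminescence-based dose-response confirmation of ultra-high-throughput screening hits, measuring inhibition of SENP7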
T4 sequence (Q9BQF6 whole entry): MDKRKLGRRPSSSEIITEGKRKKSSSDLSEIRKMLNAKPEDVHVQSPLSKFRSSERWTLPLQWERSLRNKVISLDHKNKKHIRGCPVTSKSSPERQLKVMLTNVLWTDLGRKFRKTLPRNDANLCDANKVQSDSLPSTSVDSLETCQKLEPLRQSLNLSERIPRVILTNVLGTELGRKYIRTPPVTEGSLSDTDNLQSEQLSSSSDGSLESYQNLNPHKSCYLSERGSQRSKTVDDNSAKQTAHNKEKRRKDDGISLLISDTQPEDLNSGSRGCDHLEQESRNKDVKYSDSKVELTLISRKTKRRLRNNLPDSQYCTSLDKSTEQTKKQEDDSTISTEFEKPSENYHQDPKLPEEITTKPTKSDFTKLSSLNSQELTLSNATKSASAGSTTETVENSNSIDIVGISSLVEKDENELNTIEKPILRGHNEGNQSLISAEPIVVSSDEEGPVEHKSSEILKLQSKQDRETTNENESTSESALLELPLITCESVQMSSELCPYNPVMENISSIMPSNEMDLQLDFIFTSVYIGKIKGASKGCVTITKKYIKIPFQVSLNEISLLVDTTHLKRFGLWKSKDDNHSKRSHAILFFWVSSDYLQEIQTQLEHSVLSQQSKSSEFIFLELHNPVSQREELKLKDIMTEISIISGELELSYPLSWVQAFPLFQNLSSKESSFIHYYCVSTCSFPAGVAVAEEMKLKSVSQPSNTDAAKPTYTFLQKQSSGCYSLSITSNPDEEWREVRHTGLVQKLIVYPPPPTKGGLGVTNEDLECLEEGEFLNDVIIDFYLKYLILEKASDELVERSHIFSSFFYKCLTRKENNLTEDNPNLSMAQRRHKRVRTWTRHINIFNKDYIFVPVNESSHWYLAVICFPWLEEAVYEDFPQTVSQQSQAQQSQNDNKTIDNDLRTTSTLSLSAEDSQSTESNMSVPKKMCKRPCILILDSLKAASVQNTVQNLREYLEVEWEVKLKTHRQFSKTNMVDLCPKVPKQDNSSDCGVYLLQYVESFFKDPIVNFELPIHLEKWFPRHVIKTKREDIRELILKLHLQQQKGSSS

[8] = molecular target: T5, Sentrin-specific protease 6 (Homo sapiens, UniProt Q9GZR1); type: functional;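 note: Luminescence-based dose-response confirmatory assay of SENP6 inhibition, following up an ultra-high-throughput screen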
T5 sequence (Q9GZR1 whole entry): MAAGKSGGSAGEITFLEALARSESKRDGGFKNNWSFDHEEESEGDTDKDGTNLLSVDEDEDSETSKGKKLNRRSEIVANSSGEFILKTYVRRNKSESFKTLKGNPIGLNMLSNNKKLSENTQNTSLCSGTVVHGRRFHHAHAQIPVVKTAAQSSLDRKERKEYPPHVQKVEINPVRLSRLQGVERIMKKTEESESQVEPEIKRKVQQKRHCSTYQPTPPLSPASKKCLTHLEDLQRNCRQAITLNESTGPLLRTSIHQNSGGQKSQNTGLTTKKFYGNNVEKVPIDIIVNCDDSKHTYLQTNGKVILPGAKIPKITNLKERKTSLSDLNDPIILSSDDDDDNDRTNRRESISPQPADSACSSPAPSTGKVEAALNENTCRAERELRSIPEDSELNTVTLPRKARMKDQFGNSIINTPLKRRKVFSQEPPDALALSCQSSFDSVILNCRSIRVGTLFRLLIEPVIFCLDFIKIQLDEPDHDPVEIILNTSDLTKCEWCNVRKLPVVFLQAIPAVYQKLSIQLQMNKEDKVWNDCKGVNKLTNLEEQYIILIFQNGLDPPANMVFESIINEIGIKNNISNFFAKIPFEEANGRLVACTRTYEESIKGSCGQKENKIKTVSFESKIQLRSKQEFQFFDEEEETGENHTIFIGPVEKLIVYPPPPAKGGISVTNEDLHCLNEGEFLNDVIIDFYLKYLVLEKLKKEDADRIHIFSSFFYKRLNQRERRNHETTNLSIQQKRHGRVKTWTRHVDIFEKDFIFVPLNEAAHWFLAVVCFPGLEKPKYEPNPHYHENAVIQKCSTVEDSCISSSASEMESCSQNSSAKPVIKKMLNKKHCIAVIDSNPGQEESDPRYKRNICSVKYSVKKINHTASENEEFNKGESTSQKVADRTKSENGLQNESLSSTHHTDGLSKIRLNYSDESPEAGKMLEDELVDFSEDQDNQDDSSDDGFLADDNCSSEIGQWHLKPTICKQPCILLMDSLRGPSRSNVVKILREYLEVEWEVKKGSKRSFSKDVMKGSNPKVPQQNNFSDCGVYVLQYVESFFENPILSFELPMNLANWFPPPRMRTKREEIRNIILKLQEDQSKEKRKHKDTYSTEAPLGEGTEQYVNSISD

[9] = molecular target: T6, Sentrin-specific protease 8 (Homo sapiens, UniProt Q96LD8); type: functional;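 note: luminescence read-out of SENP8 inhibition, dose-response confirmation following an ultra-high-throughput screen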
T6 sequence (Q96LD8 whole entry): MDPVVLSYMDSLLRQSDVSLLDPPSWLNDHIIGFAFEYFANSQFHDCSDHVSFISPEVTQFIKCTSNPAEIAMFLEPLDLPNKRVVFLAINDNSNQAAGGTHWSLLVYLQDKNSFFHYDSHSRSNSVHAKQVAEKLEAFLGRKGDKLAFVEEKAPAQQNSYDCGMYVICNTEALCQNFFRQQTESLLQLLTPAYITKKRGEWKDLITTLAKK

[10] = system: HeLa; experiment: ATP-based viability loss in HeLa cells – cell-based, CellTiter-Glo luminescence, cherry-pick samples, cytotoxicity control for MITF activator project, dose response (AID 540259); type: functional; conditions: Homo sapiens
[11] = molecular target: T7, Tyrosine-protein phosphatase non-receptor type 7 (Homo sapiens, UniProt P35236); type: functional
T7 sequence (P35236 whole entry): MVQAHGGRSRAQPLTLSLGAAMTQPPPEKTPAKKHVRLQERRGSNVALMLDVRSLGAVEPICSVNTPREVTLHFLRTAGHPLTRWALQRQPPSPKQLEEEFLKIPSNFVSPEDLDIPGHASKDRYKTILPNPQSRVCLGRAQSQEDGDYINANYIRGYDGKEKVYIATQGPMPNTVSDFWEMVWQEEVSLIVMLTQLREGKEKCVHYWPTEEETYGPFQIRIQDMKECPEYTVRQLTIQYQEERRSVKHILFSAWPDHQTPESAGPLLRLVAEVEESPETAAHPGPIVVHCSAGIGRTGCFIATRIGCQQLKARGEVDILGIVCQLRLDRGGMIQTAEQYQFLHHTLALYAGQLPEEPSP

[12] = molecular target: T8, Tyrosine-protein phosphatase non-receptor type 22 (Homo sapiens, UniProt Q9Y2R2); type: functional
T8 sequence (Q9Y2R2 whole entry): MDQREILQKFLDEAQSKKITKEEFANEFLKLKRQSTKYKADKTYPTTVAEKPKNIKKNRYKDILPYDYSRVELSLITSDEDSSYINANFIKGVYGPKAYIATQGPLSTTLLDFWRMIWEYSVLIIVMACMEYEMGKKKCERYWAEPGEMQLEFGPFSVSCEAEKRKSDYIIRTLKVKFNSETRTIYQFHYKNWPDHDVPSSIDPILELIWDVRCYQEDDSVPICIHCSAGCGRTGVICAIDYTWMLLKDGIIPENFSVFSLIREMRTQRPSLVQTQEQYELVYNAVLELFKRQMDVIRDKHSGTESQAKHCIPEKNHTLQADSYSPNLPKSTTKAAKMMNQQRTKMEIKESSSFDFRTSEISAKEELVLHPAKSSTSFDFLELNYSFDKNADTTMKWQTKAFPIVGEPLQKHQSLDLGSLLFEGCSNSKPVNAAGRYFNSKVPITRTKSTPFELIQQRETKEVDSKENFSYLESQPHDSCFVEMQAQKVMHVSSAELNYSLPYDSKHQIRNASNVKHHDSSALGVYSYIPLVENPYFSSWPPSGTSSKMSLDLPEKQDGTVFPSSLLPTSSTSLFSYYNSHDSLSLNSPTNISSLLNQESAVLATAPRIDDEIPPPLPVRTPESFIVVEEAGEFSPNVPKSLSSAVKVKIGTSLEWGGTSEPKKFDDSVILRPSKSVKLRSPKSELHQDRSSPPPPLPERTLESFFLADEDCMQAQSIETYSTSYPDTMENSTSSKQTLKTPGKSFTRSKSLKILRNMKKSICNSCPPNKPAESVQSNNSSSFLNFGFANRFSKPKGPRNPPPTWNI

[13] = molecular target: T8, Tyrosine-protein phosphatase non-receptor type 22; type: functional; remark: listed apart in the source
[14] = molecular target: Delta-type opioid receptor (Homo sapiens, UniProt P41143); experiment: Counterscreen for agonists of heterodimerization of the mu 1 (OPRM1) and delta 1 (OPRD1) opioid receptors: Luminescence-based cell-based high throughput dose response assay to identify agonists of OPRD1 homodimerization. [Related pubchem assays (depositor defined):AID504326, AID504355, AID504692, AID504904, AID504905]; type: functional
[15] = molecular target: Mu-type opioid receptor (Homo sapiens, UniProt P35372); experiment: Counterscreen for agonists of heterodimerization of the mu 1 (OPRM1) and delta 1 (OPRD1) opioid receptors: Luminescence-based cell-based high throughput dose response assay to identify agonists of OPRM1 homodimerization.; type: functional;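 note: U2OS cells expressing OPRM1 and beta-arrestin as split beta-galactosidase partners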
[16] = molecular target: 5-hydroxytryptamine receptor 5A (Homo sapiens, UniProt P47898); experiment: Counterscreen for agonists of OPRM1-OPRD1 heterodimerization: luminescence-based cell-based high throughput dose response assay to identify agonists of 5-hydroxytryptamine (serotonin) 5A receptor (HTR5A). [Related pubchem assays (depositor defined):AID504326, AID504355, AID504692, AID504904, AID504905]; type: functional
Chain of 5-hydroxytryptamine receptor 5A (P47898 whole entry): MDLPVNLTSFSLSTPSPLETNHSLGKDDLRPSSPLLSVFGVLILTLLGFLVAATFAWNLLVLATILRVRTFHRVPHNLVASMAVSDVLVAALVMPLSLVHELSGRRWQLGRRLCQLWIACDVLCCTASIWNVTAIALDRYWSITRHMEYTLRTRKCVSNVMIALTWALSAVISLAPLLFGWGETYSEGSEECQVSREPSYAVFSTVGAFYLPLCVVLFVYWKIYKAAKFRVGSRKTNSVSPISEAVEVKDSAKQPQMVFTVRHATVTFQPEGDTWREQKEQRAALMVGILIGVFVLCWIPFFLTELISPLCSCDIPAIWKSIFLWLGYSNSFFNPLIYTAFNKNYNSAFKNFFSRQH

Chain of Mu-type opioid receptor (P35372 whole entry): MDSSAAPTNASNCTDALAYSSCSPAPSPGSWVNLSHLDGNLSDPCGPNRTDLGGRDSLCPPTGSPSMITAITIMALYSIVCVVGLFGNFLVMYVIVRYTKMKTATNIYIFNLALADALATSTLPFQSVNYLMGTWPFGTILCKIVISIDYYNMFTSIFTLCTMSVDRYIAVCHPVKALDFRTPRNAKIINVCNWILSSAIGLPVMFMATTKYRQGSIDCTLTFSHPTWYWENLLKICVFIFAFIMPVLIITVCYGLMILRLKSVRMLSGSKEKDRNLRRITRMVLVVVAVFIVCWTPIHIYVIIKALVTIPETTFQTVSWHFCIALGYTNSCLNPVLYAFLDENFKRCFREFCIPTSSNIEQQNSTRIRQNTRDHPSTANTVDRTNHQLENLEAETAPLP
Chain of Delta-type opioid receptor (P41143 whole entry): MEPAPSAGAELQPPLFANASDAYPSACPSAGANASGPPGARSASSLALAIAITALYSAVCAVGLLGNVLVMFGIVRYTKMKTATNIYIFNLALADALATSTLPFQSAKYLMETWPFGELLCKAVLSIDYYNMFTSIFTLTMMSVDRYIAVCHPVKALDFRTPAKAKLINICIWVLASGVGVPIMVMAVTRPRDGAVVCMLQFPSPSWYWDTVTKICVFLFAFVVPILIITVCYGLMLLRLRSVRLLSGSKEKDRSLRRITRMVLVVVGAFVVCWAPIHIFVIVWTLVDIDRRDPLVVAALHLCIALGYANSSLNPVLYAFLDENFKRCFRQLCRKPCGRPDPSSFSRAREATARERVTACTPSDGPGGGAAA
Chain of Phospholipase A2 (P04054 whole entry): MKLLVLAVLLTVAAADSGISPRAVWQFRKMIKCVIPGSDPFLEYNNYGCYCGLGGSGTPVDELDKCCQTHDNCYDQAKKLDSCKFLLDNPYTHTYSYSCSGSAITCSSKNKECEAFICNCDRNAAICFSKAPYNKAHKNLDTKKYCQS

## O=C(C1CCN(c2ncnc3c2nc2n3CCCCC2)CC1)N1CCN(c2cccc(Cl)c2)CC1
[1]
  IC50: 11.1 µM (active)
[2]
  IC50: 22.6 µM (inactive)

## Cc1csc2nc(CSc3nc4ccccc4o3)c(Br)n12
[3]
  EC50: 45.5 µM (active)
[4]
  EC50: > 150 µM (not active)
[5]
  EC50: > 150 µM (not active)
[6]
  IC50: 49.4 µM (active)
[7]
  IC50: 16.2 µM (active)
[8]
  IC50: 12.5 µM (active)
[9]
  IC50: > 100 µM (inactive)
[10]
  AC50: 42.3 µM (active)

## CS(=O)(=O)N1CCc2ccc(NC(=O)C3CCCO3)cc2C1 (centres undefined)
[11]
  IC50: > 79.4 µM (inactive)
[12]
  IC50: > 79.4 µM (inactive)
[13]
  IC50: > 79.4 µM (inactive)

## CN(C)C(CNC(=O)c1cc2ccccc2o1)c1ccco1 (centres undefined)
[14]
  EC50: > 92.5 µM (inactive)
[15]
  EC50: > 92.5 µM (inactive)
[16]
  EC50: > 92.5 µM (inactive)

## COC(=O)N/N=C(\C)c1ccc2ccccc2c1OC(F)F
[11]
  IC50: > 79.4 µM (inactive)
[12]
  IC50: > 79.4 µM (inactive)
[13]
  IC50: > 79.4 µM (inactive)
